{"source": "paper PMC3898987", "about": "(Bioorganic & Medicinal Chemistry, 2013)", "key": {"[1]": {"target": "T1, 5-HT3A receptor S163T (Homo sapiens, UniProt P46098, S158T)", "T1 sequence (P46098 24-478 S158T)": "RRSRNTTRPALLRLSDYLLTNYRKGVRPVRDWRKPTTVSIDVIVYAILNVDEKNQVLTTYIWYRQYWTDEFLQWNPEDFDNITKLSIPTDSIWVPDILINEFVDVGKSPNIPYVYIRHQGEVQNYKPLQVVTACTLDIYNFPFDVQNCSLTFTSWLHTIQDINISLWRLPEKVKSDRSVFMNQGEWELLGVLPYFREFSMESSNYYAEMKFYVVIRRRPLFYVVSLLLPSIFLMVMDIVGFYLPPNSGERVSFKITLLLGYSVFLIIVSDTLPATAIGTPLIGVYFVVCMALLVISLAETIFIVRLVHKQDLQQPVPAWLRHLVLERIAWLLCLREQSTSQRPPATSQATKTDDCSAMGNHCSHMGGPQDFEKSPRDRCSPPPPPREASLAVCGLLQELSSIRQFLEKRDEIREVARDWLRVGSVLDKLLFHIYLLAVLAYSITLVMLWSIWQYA", "experiment": "radioligand saturation binding, transfected HEK293 membranes", "details": "[3H]-palonosetron saturation, 5-HT3A S163T, 4 °C, 24 h", "description": "(§1) Human embryonic kidney (HEK) 293 cells were cultured on 90 mm tissue culture plates at 37 °C and 7% CO2 in a humidified atmosphere. They were grown in DMEM:F12 (Dulbecco’s Modified Eagle’s Medium/Nutrient Mix F12 (1:1)) with GlutaMAX I™ containing 10% fetal calf serum and passaged when confluent. For radioligand binding studies, cells in 90 mm dishes were transfected at 60–70% confluency using polyethyleneimine and incubated for 3–4 days before use. For FlexStation assays, transfected cells were plated on 96-well plates and incubated 1–2 days before assay. […]\n(§2) Eight-point binding assays were performed to produce saturation binding curves. […] Radioactive counts were measured using a Beckman LS6000SC liquid scintillation counter (Fullerton, California, USA).\n(§3) Data were analyzed by iterative curve fitting using GraphPad Prism v5 (San Diego, CA) according to the following equation: B=Bmax[L]^n/kdn+[L]^n where B is the amount of bound radioligand, Bmax is the maximum specific binding at equilibrium, [L] is the concentration of radioligand, Kd is the equilibrium dissociation constant of the radioligand, and n is the Hill coefficient."}, "[2]": {"target": "T2, 5-HT3AB receptor, 5-HT3B subunit W90C (Homo sapiens, UniProt O95264+P46098, W83C)", "T2 sequence (P46098 24-478)": "T1 sequence (P46098 24-478 S158T) with T135S", "T2 sequence (O95264 22-441 W83C)": "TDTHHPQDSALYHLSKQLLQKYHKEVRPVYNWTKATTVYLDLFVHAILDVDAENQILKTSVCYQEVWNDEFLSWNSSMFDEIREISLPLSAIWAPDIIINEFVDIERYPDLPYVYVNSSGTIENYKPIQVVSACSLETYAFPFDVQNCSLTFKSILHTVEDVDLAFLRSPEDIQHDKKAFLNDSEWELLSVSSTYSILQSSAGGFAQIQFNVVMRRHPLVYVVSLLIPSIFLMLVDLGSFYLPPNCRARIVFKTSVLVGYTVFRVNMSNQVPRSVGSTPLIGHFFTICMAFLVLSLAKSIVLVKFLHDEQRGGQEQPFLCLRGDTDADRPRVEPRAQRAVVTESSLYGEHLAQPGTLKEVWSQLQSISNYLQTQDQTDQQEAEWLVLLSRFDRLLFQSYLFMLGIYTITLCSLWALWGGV", "experiment": "cell-based", "description": "Human embryonic kidney (HEK) 293 cells were cultured on 90 mm tissue culture plates at 37 °C and 7% CO2 in a humidified atmosphere. They were grown in DMEM:F12 (Dulbecco’s Modified Eagle’s Medium/Nutrient Mix F12 (1:1)) with GlutaMAX I™ containing 10% fetal calf serum and passaged when confluent. […] For FlexStation assays, transfected cells were plated on 96-well plates and incubated 1–2 days before assay.\nFluorometric studies were undertaken using a FlexStation® (Molecular Devices, Sunnyvale, CA, USA) as previously described.[11]\nFluorescence was measured every 2 s for 200 s. […] Concentration–response and inhibition curves were obtained for each mutant, and the fluorescence values were normalized to the maximal response."}, "[3]": {"target": "T3, 5-HT3A receptor Y73F (Homo sapiens, UniProt P46098, Y68F)", "T3 sequence (P46098 24-478 Y68F)": "T1 sequence (P46098 24-478 S158T) with Y45F, T135S", "experiment": "radioligand saturation binding, transfected HEK293 membranes", "details": "[3H]-palonosetron saturation, 5-HT3A Y73F, 4 °C, 24 h", "description": "as §1, §2, §3"}, "[4]": {"target": "T4, 5-HT3A receptor D165A (Homo sapiens, UniProt P46098, D160A)", "T4 sequence (P46098 24-478 D160A)": "T1 sequence (P46098 24-478 S158T) with T135S, D137A", "experiment": "radioligand saturation binding, transfected HEK293 membranes", "details": "[3H]-palonosetron saturation, 5-HT3A D165A, 4 °C, 24 h", "description": "as §1, §2, §3"}, "[5]": {"target": "T5, 5-HT3A receptor D165K (Homo sapiens, UniProt P46098, D160K)", "T5 sequence (P46098 24-478 D160K)": "T1 sequence (P46098 24-478 S158T) with T135S, D137K", "experiment": "radioligand saturation binding, transfected HEK293 membranes", "details": "[3H]-palonosetron saturation, 5-HT3A D165K, 4 °C, 24 h", "description": "as §1, §2, §3"}}, "note": "Substitutions are numbered along the chain they refer to.", "data": [{"smiles": "O=C1c2cccc3c2[C@H](CCC3)CN1[C@@H]1CN2CCC1CC2", "note": "[Palonosetron]", "values": [{"measurement": "Kd", "setting": "[1]", "result": "0.22 ± 0.05", "unit": "nM"}, {"measurement": "IC50", "setting": "[2]", "result": "0.37 ± 0.1", "unit": "nM"}, {"measurement": "Kd", "setting": "[3]", "result": "0.25 ± 0.04", "unit": "nM"}, {"measurement": "Kd", "setting": "[4]", "result": "0.3 ± 0.08", "unit": "nM"}, {"measurement": "Kd", "setting": "[5]", "result": "0.36 ± 0.02", "unit": "nM"}]}]}
